Our source for the cellular growth and apoptosis values is patent US9867814B2, “Use of non-peptidic NK1 receptor antagonists for the production of apoptosis in tumour cells” (NK-1 IP LIMITED, priority 2004, dated 2018).

Common to all, as to format: cell-based, human
Assay [1] relates to A-204. Kind of assay: MTS cell proliferation assay, rhabdomyosarcoma line A-204. As to conditions: A-204 cells. The procedure: Cellular Lines Related to Human Rhabdomyosarcoma A-204 (DSMZ) were Used.
This cellular line was maintained in a culture of Mc-Co-supplemented with 10% fetal bovine serum according to the established cellular culture conditions of the ATCC.
(§1) The cellular line was cultivated in flasks of 75 ml (Falcon, Germany). Half were renewed every two days and the cells were treated with Trypsin (0.05% and 0.02% EDTA without Ca2+ and Mg2+) every six days. The cells were incubated at a temperature of 37 C in a humidification of (95% air/5% CO2). […]
The cell proliferation was evaluated using the MTS method [3-(4,5-dimethylthiazol-2il)-5-(3-carboxymethoxyphenyl) 2-(4-sulfophenyl)-2H-tetrazolium], following the instructions of use by the manufacturer (CellTiter 96 Aqueous One Solution Cell Proliferation Assay, Promega, USA).
(§2) During the experiment, the cultivated cells were broken apart every 4-5 days by way of trypsinization and to test the cell viability the blue trypan method was used. The cells were quantified and cultured in plates of 96 wells each. […]
In T0, 20 μl of MTS was immediately added to the wells and were read 90 minutes later. […]
To study the proliferation of the cells 20 μl of MTS reactor was added to each well (T1, T2) 90 min., before reading the samples with the plate reader (TECAN Spectra Classic) at 492 nm. […]
(Formazan colour is commonly taken as a measure of viable cells.)

In assay [2] the test system is CA-46. Briefly: MTS cell proliferation assay, Burkitt's lymphoma line CA-46. As to conditions: CA-46 cells. Here is the method: Cellular lines related with Burkitt's human lymphoma The cellular line of Burkitt's human lymphoma was used with CA-46 (DSMZ).
This cellular line was maintained in a culture of RPMI 1640 supplemented with 10% fetal bovine serum according to the established cellular culture conditions of the ATCC.
The cellular lines were cultivated in flasks of 75 ml (Falcon, Germany). Half was renewed every two days and the cells were treated with Trypsin (0.05% and 0.02% EDTA […]) every six days. The cells were incubated at 37 C in a humidification of (95% air/5% CO2). […]
(§3) The cell proliferation was evaluated using the MTS method [3-(4,5-dimethylthiazol-2-il)-5-(3-carboxymethoxyphenyl) 2-(4-sulfophenyl)-2H-tetrazolium], following the instructions of use by the manufacturer (CellTiter 96 Aqueous One Solution Cell Proliferation Assay, Promega, USA).
The cells were quantified and cultured in plates of 96 wells each. […]
In T0, 20 μL of MTS was immediately added to the wells and they were read 90 minutes later. […]
To study the proliferation of the cells 20 µl of reactive MTS was added to each well (T1, T2) 90 min before reading the samples with the plate reader (TECAN Spectra Classic) at 492 nm. The quantity of reactive MTS was measured by optical density, being directly proportional in number of live cells. […]

The subject of assay [3] is COLO-677. Briefly: MTS cell proliferation assay, small cell lung cancer line COLO-677. As to conditions: COLO-677 cells. The procedure:
Cellular lines related with small cell lung cancer COLO-677 (DSMZ) was used. This cellular line was maintained in a culture of RPMI 1640 supplemented with 10% fetal bovine serum according to the established cellular culture conditions of the ATCC.
as §1, §3, §2
In T0, 20 μl of MTS was immediately added to the wells and they were read 90 minutes later. […]
To study the proliferation of the cells 20 μL of MTS reactor was added to each well (T1, T2) 90 min., before reading the samples with the plate reader (TECAN Spectra Classic) at 492 nm. […]

Turning to `FC(F)(F)c1cc(CO[C@H]2CCCN[C@H]2c2ccccc2)cc(C(F)(F)F)c1` [L-733,060, (2S,3S) 3-([3,5-Bis(trifluoromethyl)phenyl]metoxi)-2-phenylpiperidine], the cellular growth entry in assay [1] (at the highest concentrations (2.5 μM to 20 μM tested), 36 hrs. and 72 hrs. incubation) is “Cellular growth is inhibited”; in assay [2] (at the highest concentrations (2.5 μM to 25 μM tested), 35 hrs. and 72 hrs. incubation), “inhibition in cellular growth was produced”; in assay [3] (at the highest concentrations (5 μM to 20 μM tested), 40 hrs. and 96 hrs. incubation) it was “Cellular growth is inhibited”. Moreover, the apoptosis entry in assay [1] (at the maximum dose (2.5 μM to 20 μM tested)), in assay [2] (at the maximum dose (2.5 μM to 25 μM tested)) and in assay [3] (at the maximum dose (5 μM to 20 μM tested)) was “apoptosis” in each case.
